The target in assay [1] is T1, Human phosphodiesterase-2A1 (Homo sapiens, UniProt O00408).
T1 construct: host or cells: Sf9 cells
Nature of the assay: PDE2A1 (h) assay. It counts as biochemical. On the procedure:
The test compound (compound 72), reference compound or water (control) were added to a buffer containing 40 mM Tris/HCl (pH 7.8), 3 mM MgCl2, 1.4 mM DTT, 0.21% BSA, 200 mM NH4Cl, 1 μM cGMP and 0.1 μCi [3H]cGMP. Thereafter, the reaction was initiated by addition of the enzyme (final amount depending on the efficiency of the isolation) and the mixture was incubated for 60 min at 22° C. For basal control measurements, the enzyme was omitted from the reaction mixture. Following incubation SPA beads were added. After 20 min at 22° C. under shaking, the amount of [3H]5′GMP was quantified with a scintillation counter (MicroBeta, Perkin Elmer). The results were expressed as a percent inhibition of the control enzyme activity.
The test compound (compound 72), reference compound or water (control) were added to a buffer containing 40 mM Tris/HCl (pH 7.4), 8 mM MgCl2 and 1.7 mM EGTA/NaOH, 1.8 μM cAMP and 1 μCi [3H]cAMP. Thereafter, the reaction was initiated by addition of the enzyme (about 2 ng) and the mixture was incubated for 15 min at 22° C. For basal control measurements, the enzyme was omitted from the reaction mixture. Following incubation SPA beads were added. After 30 min at 22° C. under shaking, the amount of [3H]5′AMP was quantified with a scintillation counter (MicroBeta, Perkin Elmer). The results were expressed as a percent inhibition of the control enzyme activity. […]

Assay [2] addresses T2, human ENT1 (Homo sapiens, UniProt Q99808).
T2 sequence (Q99808 1-456): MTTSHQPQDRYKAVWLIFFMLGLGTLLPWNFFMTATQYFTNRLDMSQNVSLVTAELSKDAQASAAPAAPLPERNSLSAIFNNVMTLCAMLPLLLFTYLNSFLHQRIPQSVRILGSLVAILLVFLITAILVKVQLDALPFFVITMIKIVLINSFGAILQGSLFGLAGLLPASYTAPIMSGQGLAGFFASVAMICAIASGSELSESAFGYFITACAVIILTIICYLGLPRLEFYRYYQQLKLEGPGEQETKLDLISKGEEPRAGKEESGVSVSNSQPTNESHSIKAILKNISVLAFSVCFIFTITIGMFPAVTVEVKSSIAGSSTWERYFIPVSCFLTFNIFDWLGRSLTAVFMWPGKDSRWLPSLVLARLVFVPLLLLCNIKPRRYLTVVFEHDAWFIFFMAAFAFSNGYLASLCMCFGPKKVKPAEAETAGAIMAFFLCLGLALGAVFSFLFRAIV
Put plainly: ENT1 binding assay (competition with Sahenta-DY647 on JAR cells). On the set-up: JAR cells expressing ENT1 were bought from ATCC; host or cells: JAR cells. Conditions: binned IC50. The essentials:
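JAR cells were incubated with test compounds and the fluorescent ligand Sahenta-DY647 in competition. Plates were washed twice by centrifugation (4 min, 400 rcf, 4 °C). Binding potency was derived from the final fluorescence.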

Assay [3] has as its target T3, Human phosphodiesterase-7A1 (Homo sapiens, UniProt Q13946).
T3 construct: host or cells: Sf9 cells
Put plainly: PDE7A1 (h) assay. It counts as biochemical. On the procedure: The test compound (compound 72), reference compound or water (control) were added to a buffer containing 40 mM Tris/HCl (pH 7.4), 8 mM MgCl2 and 1.7 mM EGTA/NaOH, 1.8 μM cAMP and 1 μCi [3H]cAMP. Thereafter, the reaction was initiated by addition of the enzyme (about 2 ng) and the mixture was incubated for 15 min at 22° C. For basal control measurements, the enzyme was omitted from the reaction mixture. Following incubation SPA beads were added. After 30 min at 22° C. under shaking, the amount of [3H]5′AMP was quantified with a scintillation counter (MicroBeta, Perkin Elmer). The results were expressed as a percent inhibition of the control enzyme activity. The standard inhibitory reference compound was EHNA, which was tested in each experiment at several concentrations to obtain an inhibition curve from which its IC50 value was calculated. • Human phosphodiesterase-7A1 quantified by measuring the formation of 5′AMP from cAMP using a human recombinant enzyme expressed in Sf9 cells
The test compound (compound 72), reference compound or water (control) were added to a buffer containing 40 mM Tris/HCl (pH 7.4) and 8 mM MgCl2, 63 nM cAMP and 0.035 μCi [3H]cAMP. […] After 30 min at 22° C. under shaking, the amount of [3H]5′AMP was quantified with a scintillation counter (MicroBeta, Perkin Elmer). The results were expressed as a percent inhibition of the control enzyme activity. […]

Assay [4] deals with T4, Human phosphodiesterase-3A (Homo sapiens, UniProt Q14432).
T4 construct: host or cells: Sf9 cells
T4 sequence (Q14432 whole entry): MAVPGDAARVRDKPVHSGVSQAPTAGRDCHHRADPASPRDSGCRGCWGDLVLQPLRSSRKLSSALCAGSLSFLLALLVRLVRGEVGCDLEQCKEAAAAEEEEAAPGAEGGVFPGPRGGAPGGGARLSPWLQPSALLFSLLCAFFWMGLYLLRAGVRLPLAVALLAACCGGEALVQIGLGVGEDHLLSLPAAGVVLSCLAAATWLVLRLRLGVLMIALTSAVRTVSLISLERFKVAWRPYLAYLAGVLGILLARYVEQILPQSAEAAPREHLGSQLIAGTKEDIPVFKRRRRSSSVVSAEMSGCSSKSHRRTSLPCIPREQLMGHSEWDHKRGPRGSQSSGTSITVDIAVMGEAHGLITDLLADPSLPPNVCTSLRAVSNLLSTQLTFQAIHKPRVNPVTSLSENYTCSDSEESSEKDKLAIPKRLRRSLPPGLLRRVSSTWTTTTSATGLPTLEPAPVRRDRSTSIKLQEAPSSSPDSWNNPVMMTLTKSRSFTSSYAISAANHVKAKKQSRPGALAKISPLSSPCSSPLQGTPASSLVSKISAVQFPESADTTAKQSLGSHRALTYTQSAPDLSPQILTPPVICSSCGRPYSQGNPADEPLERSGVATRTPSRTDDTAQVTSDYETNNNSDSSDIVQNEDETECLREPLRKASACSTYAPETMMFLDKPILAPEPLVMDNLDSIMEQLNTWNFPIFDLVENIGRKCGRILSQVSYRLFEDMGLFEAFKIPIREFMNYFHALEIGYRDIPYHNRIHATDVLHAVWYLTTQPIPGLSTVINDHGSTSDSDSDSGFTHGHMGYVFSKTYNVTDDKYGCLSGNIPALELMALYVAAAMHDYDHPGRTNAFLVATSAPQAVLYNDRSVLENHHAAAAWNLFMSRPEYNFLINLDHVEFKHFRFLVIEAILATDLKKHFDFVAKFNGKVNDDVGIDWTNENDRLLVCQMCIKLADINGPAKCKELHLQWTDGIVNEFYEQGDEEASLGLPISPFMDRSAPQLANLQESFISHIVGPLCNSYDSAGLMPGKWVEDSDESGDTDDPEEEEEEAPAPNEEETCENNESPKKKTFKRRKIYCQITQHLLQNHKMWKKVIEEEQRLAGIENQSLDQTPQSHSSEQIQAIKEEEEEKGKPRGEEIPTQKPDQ
Put plainly: PDE3A (h) assay. It counts as biochemical. As for the experimental part:
The test compound (compound 72), reference compound or water (control) were added to a buffer containing 40 mM Tris/HCl (pH 7.4) and 8 mM MgCl2, 180 nM cAMP and 0.1 μCi [3H]cAMP. Thereafter, the reaction was initiated by addition of the enzyme (about 0.8 U) and the mixture was incubated for 20 min at 22° C. For basal control measurements, the enzyme was omitted from the reaction mixture. Following incubation SPA beads were added. After 30 min at 22° C. under shaking, the amount of [3H]5′AMP was quantified with a scintillation counter (MicroBeta, Perkin Elmer). The results were expressed as a percent inhibition of the control enzyme activity. The standard inhibitory reference compound was papaverine, which was tested in each experiment at several concentrations to obtain an inhibition curve from which its IC50 value was calculated. • Human phosphodiesterase-3A quantified by measuring the formation of 5′AMP from cAMP using a human recombinant enzyme expressed in Sf9 cells
The test compound (compound 72), reference compound or water (control) were added to a buffer containing 40 mM Tris/HCl (pH 7.4) and 8 mM MgCl2, 450 nM cAMP and 0.25 μCi [3H]cAMP. […] After 30 min at 22° C. under shaking, the amount of [3H]5′AMP was quantified with a scintillation counter (Topcount, Packard). The results were expressed as a percent inhibition of the control enzyme activity. […]

T1 sequence (O00408 1-920 isoform O00408-2): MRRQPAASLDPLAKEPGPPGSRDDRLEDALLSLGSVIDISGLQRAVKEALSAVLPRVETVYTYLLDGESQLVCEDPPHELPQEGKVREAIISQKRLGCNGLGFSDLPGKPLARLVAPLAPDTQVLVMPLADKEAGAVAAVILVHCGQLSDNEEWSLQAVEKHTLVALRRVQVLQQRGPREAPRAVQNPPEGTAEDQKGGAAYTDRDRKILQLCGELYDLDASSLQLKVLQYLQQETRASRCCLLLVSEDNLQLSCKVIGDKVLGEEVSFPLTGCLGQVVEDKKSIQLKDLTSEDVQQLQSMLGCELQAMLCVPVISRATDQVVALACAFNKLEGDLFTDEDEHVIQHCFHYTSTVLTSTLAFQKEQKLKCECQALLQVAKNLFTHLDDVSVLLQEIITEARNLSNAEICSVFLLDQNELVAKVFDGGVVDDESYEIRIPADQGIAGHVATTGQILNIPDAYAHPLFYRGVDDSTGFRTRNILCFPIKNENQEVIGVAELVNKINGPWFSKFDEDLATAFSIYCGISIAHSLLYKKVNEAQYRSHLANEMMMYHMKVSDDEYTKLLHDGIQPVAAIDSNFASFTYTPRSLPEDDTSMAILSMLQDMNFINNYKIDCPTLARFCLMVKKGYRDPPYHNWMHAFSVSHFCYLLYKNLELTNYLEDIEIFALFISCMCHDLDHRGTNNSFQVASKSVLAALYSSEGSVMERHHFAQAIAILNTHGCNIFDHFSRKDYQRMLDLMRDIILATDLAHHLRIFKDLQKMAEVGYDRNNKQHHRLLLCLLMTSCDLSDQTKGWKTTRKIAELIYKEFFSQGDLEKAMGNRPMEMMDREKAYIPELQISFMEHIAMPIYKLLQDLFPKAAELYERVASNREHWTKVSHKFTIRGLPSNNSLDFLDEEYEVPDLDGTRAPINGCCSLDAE
T3 sequence (Q13946 whole entry): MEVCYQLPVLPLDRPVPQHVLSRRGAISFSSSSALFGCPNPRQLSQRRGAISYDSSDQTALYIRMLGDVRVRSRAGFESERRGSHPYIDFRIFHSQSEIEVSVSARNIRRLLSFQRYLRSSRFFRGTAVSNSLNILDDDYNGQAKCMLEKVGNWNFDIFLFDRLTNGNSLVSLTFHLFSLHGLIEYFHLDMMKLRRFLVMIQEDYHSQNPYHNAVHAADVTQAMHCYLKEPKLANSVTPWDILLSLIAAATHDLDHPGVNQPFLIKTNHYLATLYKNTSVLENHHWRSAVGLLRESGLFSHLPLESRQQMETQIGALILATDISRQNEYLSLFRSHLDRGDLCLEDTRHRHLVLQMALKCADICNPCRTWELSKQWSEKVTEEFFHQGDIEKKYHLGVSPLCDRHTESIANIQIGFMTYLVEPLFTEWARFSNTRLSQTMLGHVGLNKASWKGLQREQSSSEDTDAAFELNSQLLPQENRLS

A word on the IC50: it is the midpoint of a concentration-inhibition curve. Consider `COCCN(CCOC)c1nc(N2CCN(C)C(=O)C2)c2nc(N(CCOC)CCOC)nc(N3CCC(OC)CC3)c2n1` [Compound 72, 4-(2,6-bis(bis(2-methoxyethyl)amino)-8-(4-methoxypiperidin-1-yl)pyrimido[5,4-d]pyrimidin-4-yl)-1-methylpiperazin-2-one], for which the IC50 in assay [1] was above 10 µM; in assay [2], below 0.1 µM; in assay [3], above 10 µM; in assay [4], above 10 µM.
